Test results published in patent US20050250715A1, “Remedy” (priority 2002, published 2005).

What was measured:
NGF = experiment: Enhancing activity for NGF production in L-M cells (NGF in culture medium by enzyme immunoassay); type: cell-based, murine; details: 20 hours; for Amount of NGF Production (%): control = 100%
Description: (2) The enhancing activity for NGF production of the compound a was assayed. L-M cells (ATCC CCL-1.2) from murine fibroblasts were suspended in an M199 medium (manufactured by Bio Whittaker) containing 0.5% bactopeptone (manufactured by Gibco) so as to have a concentration of 1.5×10^5 cells/mL. The suspension was put in a 96 well plate in an amount of 0.1 mL each well, and the cells were aseptically cultured. After culturing the cells for 3 days, the medium was removed therefrom, and exchanged with an M199 medium containing 0.5% bovine serum albumin (manufactured by Sigma). The compound a was added thereto, and the cells were cultured for 20 hours. After the termination of the culture, the concentration of NGF in the culture medium was assayed by an enzyme immunoassay method (NGF Emax Immuno Assay System, manufactured by Promega). The experiment was carried out twice, and an average value was taken. […] The amount of NGF production of the control was 0.739 ng/mL. As to the control, the concentration in the culture medium was determined in the same manner except that the compound a was not added. It is the same as that of the following examples.

mouse = experiment: Oral toxicity in mouse; type: in vivo; details: mouse (male, 6-week old), orally administered at 1000 mg per kg body weight

SMILES	enhancing activity for NGF production (result in words) (NGF)	Amount of NGF Production (%) (NGF; Concentration of Sample 1.0 mM)	Amount of NGF Production (%) (NGF; Concentration of Sample 2 mM)	Amount of NGF Production (%) (NGF; Concentration of Sample 0.5 mM)	Amount of NGF Production (%) (NGF; Table 3: Concentration of Sample 25 mM)	Amount of NGF Production (%) (NGF; Table 3: Concentration of Sample 50 mM)	toxicity (mouse)	Amount of NGF Production (%) (NGF; Table 4: Concentration of Sample 0.25 mM)	Amount of NGF Production (%) (NGF; Table 4: Concentration of Sample 0.5 mM)	Amount of NGF Production (%) (NGF; Table 4: Concentration of Sample 1.0 mM)
CC1(C)CC(=O)C2(C)CCC3(C)C(=CCC4C5(C)CCC(OC6OC(C(=O)O)C(O)C(O)C6OC6OC(CO)C(O)C(O)C6OC6OC(CO)C(O)C(O)C6O)C(C)(CO)C5CCC43C)C2C1 [Compound k, 3-O-[β-D-glucopyranosyl(1→2)-β-D-galactopyranosyl-(1→2)-β-D-glucuronopyranosyl]-soyasapogenol E]	has enhancing activity for NGF production	115.9	456.3	–	–	–	–	–	–	–
CC1OC(OC2C(OC3C(OC4CCC5(C)C(CCC6(C)C5CC=C5C7CC(C)(C)CC(=O)C7(C)CCC56C)C4(C)CO)OC(C(=O)O)C(O)C3O)OC(CO)C(O)C2O)C(O)C(O)C1O [Compound l, 3-O-[α-L-rhamnopyranosyl(1→2)-β-D-galactopyranosyl-(1→2)-β-D-glucuronopyranosyl]-soyasapogenol E]	has enhancing activity for NGF production	145.9	531.2	–	–	–	–	–	–	–
CC(=O)OC1COC(OC2C(O)COC(OC3C(O)C(C)(C)CC4C5=CCC6C7(C)CCC(OC8OC(C(=O)O)C(O)C(O)C8OC8OC(CO)C(O)C(O)C8OC8OC(CO)C(O)C(O)C8O)C(C)(CO)C7CCC6(C)C5(C)CCC43C)C2O)C(OC(C)=O)C1OC(C)=O [Compound m, 3-O-[β-D-glucopyranosyl(1→2)-β-D-galactopyranosyl-(1→2)-β-D-glucuronopyranosyl]-22-O-[2,3,4-tri-O-acetyl-β-D-xylopyranosyl(1→3)-α-L-arabinopyranosyl]soyasapogenol A]	has enhancing activity for NGF production	250.9	233.4	263.3	–	–	–	–	–	–
CC1(C)CC2=C3CC[C@@H]4[C@@]5(C)CCC(O)[C@](C)(CO)[C@@H]5CC[C@@]4(C)[C@]3(C)CC[C@@]2(C)C(O)C1 (stereo partly drawn) [Compound n, 13(18)-oleanene-3,22,24-triol]	has enhancing activity for NGF production	–	–	–	197.9	522.6	–	–	–	–
CC1(C)[C@@H](O[C@H]2O[C@H](C(=O)O)[C@@H](O)[C@H](O)[C@H]2O[C@@H]2O[C@H](C(=O)O)[C@@H](O)[C@H](O)[C@H]2O)CC[C@]2(C)[C@H]3C(=O)C=C4[C@@H]5C[C@@](C)(C(=O)O)CC[C@]5(C)CC[C@@]4(C)[C@]3(C)CC[C@@H]12 [Glycyrrhizin, glycyrrhizin, reference compound]	has enhancing activity for NGF production	–	–	–	–	–	no toxicity is found	113.0	204.3	261.0
